Experimental data published in patent US12215140B2, “Method of stabilizing protein contained in specimen and solution for stabilizing protein contained in specimen” (EIKEN KAGAKU KABUSHIKI KAISHA, priority 2018, dated 2025).

Molecular target: hemoglobin (Homo sapiens, UniProt P68871+P69905)
Assay: Stability of hemoglobin in samples preserved at 37° C. in preservation solution containing no haptoglobin, Hb measured by latex agglutination method (Examples 8, 9 and Table 10)
Settings: arylboronic acid 0.5 mmol/L
Experimental: Preservation solutions were prepared with the addition of 40 mmol/L HEPES (pH 6.8), 0.1% BSA, 0.1% NaN3, and 0 to 2.5 mmol/L phenylboronic acid. […] Samples obtained by adding hemoglobin-added fecal specimens to the preservation solutions so that the fecal concentration would be 0.5% were preserved at 37° C. for 0, 16, 38, and 62 hours. The fecal specimens were added with hemoglobin having an amount such that the hemoglobin concentration in the samples would be about 300 μg/L. Instead of the fecal specimens to which hemoglobin was added, samples containing no fecal specimens, in which hemoglobin was added to the preservation solutions so that the hemoglobin concentration in the samples would be 300 μg/L, were similarly preserved. The hemoglobin (Hb) concentrations (μg/L) in the preserved samples were measured by the latex agglutination method using the same measurement reagent and measurement device as in Example 1.
The concentration of phenylboronic acid in the preservation solutions of Example 8 was fixed to 0.5 mmol/L, preservation solutions to which sorbitol or sucrose was further added at 10 to 250 mmol/L or trehalose, glucose, fructose, or mannitol was further added at 50 to 100 mmol/L were prepared, and testing was conducted in the same manner as in Example 8. In addition, preservation solutions to which the phenylboronic acid was added but no sugar was added were prepared, preservation solutions to which the phenylboronic acid and sugar were not added were prepared for the comparative examples, and testing was conducted in the same manner.
For comparative examples, preservation solutions to which no arylboronic acid was added were prepared, and testing was conducted in the same manner.

[1] = Feces 1, 0 h at 37° C., no sugar
[2] = Feces 1, 16 h at 37° C., no sugar
[3] = Feces 1, 38 h at 37° C., no sugar
[4] = Feces 1, 62 h at 37° C., no sugar
[5] = Feces 2, 0 h at 37° C., no sugar
[6] = Feces 2, 16 h at 37° C., no sugar
[7] = Feces 2, 38 h at 37° C., no sugar
[8] = Feces 2, 62 h at 37° C., no sugar
[9] = Feces 3, 0 h at 37° C., no sugar
[10] = Feces 3, 16 h at 37° C., no sugar
[11] = Feces 3, 38 h at 37° C., no sugar
[12] = Feces 3, 62 h at 37° C., no sugar
[13] = No feces, 0 h at 37° C., no sugar
[14] = No feces, 16 h at 37° C., no sugar
[15] = No feces, 38 h at 37° C., no sugar
[16] = No feces, 62 h at 37° C., no sugar

hemoglobin, sequence (P69905 2-142): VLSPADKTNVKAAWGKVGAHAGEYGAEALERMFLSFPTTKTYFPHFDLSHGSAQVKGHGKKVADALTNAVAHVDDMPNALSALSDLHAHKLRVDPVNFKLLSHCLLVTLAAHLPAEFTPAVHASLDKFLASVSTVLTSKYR
hemoglobin, sequence (P68871 2-147): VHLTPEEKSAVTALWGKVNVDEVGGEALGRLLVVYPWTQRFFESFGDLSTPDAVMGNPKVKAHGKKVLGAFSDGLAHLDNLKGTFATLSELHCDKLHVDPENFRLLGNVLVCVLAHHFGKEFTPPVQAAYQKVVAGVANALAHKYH

Question: Which Hb concentration [1] does the source give for `OB(O)c1cccc(O)c1` [3H-PBA, 3-hydroxyphenylboronic acid] here?
Answer: Its Hb concentration is 298 µg/L.

Question: And the “Recovery ratio with respect to Hb after 0 days” value (shortened to “Recovery ratio”) [1]?
Answer: The value was 100%.

Question: What about the Hb concentration [2] of the same molecule?
Answer: The Hb concentration was 171 µg/L.

Question: What about the “Recovery ratio” value [2] of the same molecule?
Answer: The value was 57%.

Question: And the Hb concentration [3]?
Answer: The Hb concentration was 79 µg/L.

Question: And the “Recovery ratio” value [3]?
Answer: Its value is 26%.

Question: What about the Hb concentration [4] of the same molecule?
Answer: Its Hb concentration is 25 µg/L.

Question: What about the “Recovery ratio” value [4] of the same molecule?
Answer: Its value is 8%.

Question: And the Hb concentration (Feces 1, 0 h at 37° C.)?
Answer: The Hb concentration was 298 µg/L.

Question: And the “Recovery ratio” value (Feces 1, 0 h at 37° C.)?
Answer: The value was 100%.

Question: What about the Hb concentration (Feces 1, 16 h at 37° C.) of the same molecule?
Answer: The Hb concentration was 171 µg/L.

Question: What about the “Recovery ratio” value (Feces 1, 16 h at 37° C.) of the same molecule?
Answer: The value was 57%.

Question: What about the Hb concentration (Feces 1, 38 h at 37° C.) of the same molecule?
Answer: The Hb concentration was 79 µg/L.

Question: What about the “Recovery ratio” value (Feces 1, 38 h at 37° C.) of the same molecule?
Answer: Its value is 26%.

Question: What about the Hb concentration (Feces 1, 62 h at 37° C.) of the same molecule?
Answer: The Hb concentration was 25 µg/L.

Question: What about the “Recovery ratio” value (Feces 1, 62 h at 37° C.) of the same molecule?
Answer: Its value is 8%.

Question: And the Hb concentration [5]?
Answer: The Hb concentration was 295 µg/L.

Question: And the “Recovery ratio” value [5]?
Answer: Its value is 100%.

Question: And the Hb concentration [6]?
Answer: The Hb concentration was 95 µg/L.

Question: And the “Recovery ratio” value [6]?
Answer: The value was 32%.

Question: What about the Hb concentration [7] of the same molecule?
Answer: The Hb concentration was 11 µg/L.

Question: What about the “Recovery ratio” value [7] of the same molecule?
Answer: Its value is 4%.

Question: And the Hb concentration [8]?
Answer: Its Hb concentration is 0 µg/L.

Question: What about the “Recovery ratio” value [8] of the same molecule?
Answer: The value was 0%.

Question: What about the Hb concentration (Feces 2, 0 h at 37° C.) of the same molecule?
Answer: The Hb concentration was 295 µg/L.

Question: What about the “Recovery ratio” value (Feces 2, 0 h at 37° C.) of the same molecule?
Answer: Its value is 100%.

Question: What about the Hb concentration (Feces 2, 16 h at 37° C.) of the same molecule?
Answer: Its Hb concentration is 95 µg/L.

Question: And the “Recovery ratio” value (Feces 2, 16 h at 37° C.)?
Answer: Its value is 32%.

Question: And the Hb concentration (Feces 2, 38 h at 37° C.)?
Answer: The Hb concentration was 11 µg/L.

Question: And the “Recovery ratio” value (Feces 2, 38 h at 37° C.)?
Answer: The value was 4%.

Question: And the Hb concentration (Feces 2, 62 h at 37° C.)?
Answer: Its Hb concentration is 0 µg/L.

Question: What about the “Recovery ratio” value (Feces 2, 62 h at 37° C.) of the same molecule?
Answer: Its value is 0%.

Question: What about the Hb concentration [9] of the same molecule?
Answer: The Hb concentration was 295 µg/L.

Question: And the “Recovery ratio” value [9]?
Answer: The value was 100%.

Question: And the Hb concentration [10]?
Answer: Its Hb concentration is 106 µg/L.

Question: What about the “Recovery ratio” value [10] of the same molecule?
Answer: The value was 36%.

Question: And the Hb concentration [11]?
Answer: The Hb concentration was 9 µg/L.

Question: And the “Recovery ratio” value [11]?
Answer: Its value is 3%.

Question: What about the Hb concentration [12] of the same molecule?
Answer: Its Hb concentration is 0 µg/L.

Question: What about the “Recovery ratio” value [12] of the same molecule?
Answer: Its value is 0%.

Question: What about the Hb concentration (Feces 3, 0 h at 37° C.) of the same molecule?
Answer: Its Hb concentration is 295 µg/L.

Question: What about the “Recovery ratio” value (Feces 3, 0 h at 37° C.) of the same molecule?
Answer: The value was 100%.

Question: And the Hb concentration (Feces 3, 16 h at 37° C.)?
Answer: The Hb concentration was 106 µg/L.

Question: And the “Recovery ratio” value (Feces 3, 16 h at 37° C.)?
Answer: The value was 36%.

Question: And the Hb concentration (Feces 3, 38 h at 37° C.)?
Answer: Its Hb concentration is 9 µg/L.

Question: And the “Recovery ratio” value (Feces 3, 38 h at 37° C.)?
Answer: The value was 3%.

Question: And the Hb concentration (Feces 3, 62 h at 37° C.)?
Answer: The Hb concentration was 0 µg/L.

Question: And the “Recovery ratio” value (Feces 3, 62 h at 37° C.)?
Answer: The value was 0%.

Question: What about the Hb concentration [13] of the same molecule?
Answer: The Hb concentration was 306 µg/L.

Question: What about the “Recovery ratio” value [13] of the same molecule?
Answer: Its value is 100%.

Question: What about the Hb concentration [14] of the same molecule?
Answer: The Hb concentration was 282 µg/L.

Question: What about the “Recovery ratio” value [14] of the same molecule?
Answer: Its value is 92%.

Question: What about the Hb concentration [15] of the same molecule?
Answer: The Hb concentration was 263 µg/L.

Question: What about the “Recovery ratio” value [15] of the same molecule?
Answer: The value was 86%.

Question: What about the Hb concentration [16] of the same molecule?
Answer: Its Hb concentration is 264 µg/L.

Question: What about the “Recovery ratio” value [16] of the same molecule?
Answer: The value was 86%.

Question: What about the Hb concentration (No feces, 0 h at 37° C.) of the same molecule?
Answer: Its Hb concentration is 306 µg/L.

Question: What about the “Recovery ratio” value (No feces, 0 h at 37° C.) of the same molecule?
Answer: The value was 100%.

Question: What about the Hb concentration (No feces, 16 h at 37° C.) of the same molecule?
Answer: The Hb concentration was 282 µg/L.

Question: What about the “Recovery ratio” value (No feces, 16 h at 37° C.) of the same molecule?
Answer: Its value is 92%.

Question: And the Hb concentration (No feces, 38 h at 37° C.)?
Answer: The Hb concentration was 263 µg/L.

Question: What about the “Recovery ratio” value (No feces, 38 h at 37° C.) of the same molecule?
Answer: The value was 86%.

Question: And the Hb concentration (No feces, 62 h at 37° C.)?
Answer: Its Hb concentration is 264 µg/L.

Question: What about the “Recovery ratio” value (No feces, 62 h at 37° C.) of the same molecule?
Answer: The value was 86%.
